In patent publication US6642355B2, “Endothelin-antagonizing peptide” (priority 1991, dated 2003):
Where two headings read alike, the source gives them in different places. Bridge positions count the residues as written; N and C are the ends. Peptide text beside a SMILES is read from it.

Molecular target: T1, endothelin receptor (Bos taurus, UniProt P28088)
T1 construct: from tissue; host or cells: bovine cerebellar membrane fraction
T1 sequence (P28088 27-441): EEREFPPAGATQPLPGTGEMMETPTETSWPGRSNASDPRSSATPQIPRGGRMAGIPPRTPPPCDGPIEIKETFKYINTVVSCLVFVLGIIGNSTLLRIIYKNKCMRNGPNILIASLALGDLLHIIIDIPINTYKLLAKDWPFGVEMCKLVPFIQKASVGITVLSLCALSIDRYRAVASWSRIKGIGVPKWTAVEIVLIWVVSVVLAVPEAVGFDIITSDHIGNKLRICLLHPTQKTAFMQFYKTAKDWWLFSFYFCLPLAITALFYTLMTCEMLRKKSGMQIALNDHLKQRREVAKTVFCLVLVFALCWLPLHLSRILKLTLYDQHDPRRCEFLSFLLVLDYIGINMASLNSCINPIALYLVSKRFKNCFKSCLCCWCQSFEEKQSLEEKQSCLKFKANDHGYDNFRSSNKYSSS
Assay: Endothelin receptor-antagonizing effect: 125I-endothelin-1 binding to bovine cerebellar tissue membrane fraction

[1] = bovine cerebellar tissue membrane fraction

| IC50 [1] [nM] | SMILES | IC50 [nM] |
| --- | --- | --- |
| – | CC[C@H](C)[C@H](NC(=O)[C@H](Cc1c[nH]c2ccccc12)NC(=O)[C@@H]1CC(=O)NCC(=O)N[C@@H](CC(N)=O)C(=O)N[C@@H](Cc2c[nH]c3ccccc23)C(=O)N[C@@H](Cc2c[nH]cn2)C(=O)NCC(=O)N[C@@H]([C@@H](C)O)C(=O)N[C@@H](C)C(=O)N2CCC[C@H]2C(=O)N1)C(=O)N[C@H](C(=O)N[C@@H](Cc1c[nH]c2ccccc12)C(=O)O)[C@@H](C)CC [Compound I-27] (GNWHGTAPDWIIW-OH; lactam N-9) | > 6000 |
| – | CC(=O)N[C@H]1CSSC[C@@H](C(=O)N[C@@H](Cc2c[nH]c3ccccc23)C(=O)N[C@@H](Cc2ccccc2)C(=O)N[C@@H](Cc2ccccc2)C(=O)N[C@@H](CC(N)=O)C(=O)N[C@@H](Cc2ccc(O)cc2)C(=O)N[C@@H](Cc2ccc(O)cc2)C(=O)N[C@@H](Cc2c[nH]c3ccccc23)C(=O)O)NC(=O)[C@@H]2CCCN2C(=O)[C@H](C)NC(=O)[C@H]([C@@H](C)O)NC(=O)CNC(=O)[C@H](Cc2c[nH]cn2)NC(=O)[C@H](Cc2c[nH]c3ccccc23)NC(=O)[C@H](CC(N)=O)NC1=O [Compound I-8] (Ac-CNWHGTAPCWFFNYYW-OH; disulfide 1-9) | > 5000 |
| > 40 | CC(C)[C@H](NC(=O)[C@H](Cc1c[nH]c2ccccc12)NC(=O)[C@@H]1CC(=O)NCC(=O)N[C@@H](CC(N)=O)C(=O)N[C@@H](Cc2c[nH]c3ccccc23)C(=O)N[C@@H](Cc2c[nH]cn2)C(=O)NCC(=O)N[C@@H]([C@@H](C)O)C(=O)N[C@@H](C)C(=O)N2CCC[C@H]2C(=O)N1)C(=O)N[C@@H](Cc1ccc(O)cc1)C(=O)N[C@@H](Cc1ccccc1)C(=O)N[C@@H](C)C(=O)N[C@@H](Cc1ccccc1)C(=O)N[C@@H](Cc1ccccc1)C(=O)N[C@@H](CC(N)=O)C(=O)N[C@@H](Cc1ccc(O)cc1)C(=O)N[C@@H](Cc1ccc(O)cc1)C(=O)N[C@@H](Cc1c[nH]c2ccccc12)C(=O)O [Compound I-33] (GNWHGTAPDWVYFAFFNYYW-OH; lactam N-9) | – |
| > 72 | CC[C@H](C)[C@H](NC(=O)[C@H](CC(N)=O)NC(=O)[C@H](Cc1ccc(O)cc1)NC(=O)[C@H](Cc1ccc(O)cc1)NC(=O)[C@H](CC(N)=O)NC(=O)[C@H](Cc1ccccc1)NC(=O)[C@H](Cc1ccccc1)NC(=O)[C@H](Cc1c[nH]c2ccccc12)NC(=O)[C@@H]1CC(=O)NCC(=O)N[C@@H](CC(N)=O)C(=O)N[C@@H](Cc2c[nH]c3ccccc23)C(=O)N[C@@H](Cc2c[nH]cn2)C(=O)NCC(=O)N[C@@H]([C@@H](C)O)C(=O)N[C@@H](C)C(=O)N2CCC[C@H]2C(=O)N1)C(=O)N[C@H](C(=O)N[C@@H](Cc1c[nH]c2ccccc12)C(=O)O)[C@@H](C)CC [Compound I-39] (GNWHGTAPDWFFNYYNIIW-OH; lactam N-9) | – |
| – | C[C@@H]1NC(=O)[C@H]([C@@H](C)O)NC(=O)CNC(=O)[C@H](Cc2c[nH]cn2)NC(=O)[C@H](Cc2c[nH]c3ccccc23)NC(=O)[C@H](CC(N)=O)NC(=O)[C@@H](N)CSSC[C@@H](C(=O)N[C@@H](Cc2c[nH]c3ccccc23)C(=O)N[C@@H](Cc2ccccc2)C(=O)N[C@@H](Cc2ccccc2)C(=O)N[C@@H](CC(N)=O)C(=O)N[C@@H](Cc2ccc(O)cc2)C(=O)N[C@@H](Cc2ccc(O)cc2)C(=O)N[C@@H](Cc2c[nH]c3ccccc23)C(=O)O)NC(=O)[C@@H]2CCCN2C1=O [Compound I-7] (H-CNWHGTAPCWFFNYYW-OH; disulfide 1-9) | > 5000 |
| – | C[C@@H]1NC(=O)[C@H]([C@@H](C)O)NC(=O)CNC(=O)[C@H](Cc2c[nH]cn2)NC(=O)[C@H](Cc2c[nH]c3ccccc23)NC(=O)[C@H](CC(N)=O)NC(=O)CNC(=O)C[C@@H](C(=O)N[C@@H](Cc2c[nH]c3ccccc23)C(=O)N[C@@H](Cc2ccccc2)C(=O)N[C@@H](Cc2ccccc2)C(=O)N[C@@H](CC(N)=O)C(=O)N[C@@H](Cc2ccc(O)cc2)C(=O)N[C@@H](Cc2ccc(O)cc2)C(=O)N[C@@H](Cc2c[nH]c3ccccc23)C(=O)N[C@@H](CC(N)=O)C(=O)N[C@@H](Cc2ccc(O)cc2)C(=O)N[C@@H](Cc2ccc(O)cc2)C(=O)N[C@@H](Cc2c[nH]c3ccccc23)C(=O)O)NC(=O)[C@@H]2CCCN2C1=O [Compound I-19] (GNWHGTAPDWFFNYYWNYYW-OH; lactam N-9) | 370 |
| – | C[C@@H]1NC(=O)[C@H]([C@@H](C)O)NC(=O)CNC(=O)[C@H](Cc2c[nH]cn2)NC(=O)[C@H](Cc2c[nH]c3ccccc23)NC(=O)[C@H](CC(N)=O)NC(=O)CNC(=O)C[C@@H](C(=O)O)NC(=O)[C@@H]2CCCN2C1=O [Compound I-14] (GNWHGTAPD-OH; lactam N-9) | > 1000 |
| – | C[C@@H]1NC(=O)[C@H](C)NC(=O)[C@H]([C@@H](C)O)NC(=O)CNC(=O)[C@H](Cc2c[nH]cn2)NC(=O)[C@H](Cc2c[nH]c3ccccc23)NC(=O)[C@H](CC(N)=O)NC(=O)CNC(=O)C[C@@H](C(=O)N[C@@H](Cc2c[nH]c3ccccc23)C(=O)N[C@@H](Cc2ccccc2)C(=O)N[C@@H](Cc2ccccc2)C(=O)N[C@@H](CC(N)=O)C(=O)N[C@@H](Cc2ccc(O)cc2)C(=O)N[C@@H](Cc2ccc(O)cc2)C(=O)N[C@@H](Cc2c[nH]c3ccccc23)C(=O)O)NC1=O [Compound I-36] (GNWHGTAADWFFNYYW-OH; lactam N-9) | > 570 |
| > 45 | CC[C@H](C)[C@H](NC(=O)[C@H](CC(=O)O)NC(=O)[C@H](CC(C)C)NC(=O)[C@H](Cc1c[nH]cn1)NC(=O)[C@H](C)NC(=O)[C@H](Cc1ccc(O)cc1)NC(=O)[C@H](Cc1ccc(O)cc1)NC(=O)[C@H](CC(N)=O)NC(=O)[C@H](Cc1ccccc1)NC(=O)[C@H](Cc1ccccc1)NC(=O)[C@H](Cc1c[nH]c2ccccc12)NC(=O)[C@@H]1CC(=O)NCC(=O)N[C@@H](CC(N)=O)C(=O)N[C@@H](Cc2c[nH]c3ccccc23)C(=O)N[C@@H](Cc2c[nH]cn2)C(=O)NCC(=O)N[C@@H]([C@@H](C)O)C(=O)N[C@@H](C)C(=O)N2CCC[C@H]2C(=O)N1)C(=O)N[C@H](C(=O)N[C@@H](Cc1c[nH]c2ccccc12)C(=O)O)[C@@H](C)CC [Compound I-40] (GNWHGTAPDWFFNYYAHLDIIW-OH; lactam N-9 (inferred); C-terminus assumed) | – |
| – | C[C@@H]1NC(=O)[C@H]([C@@H](C)O)NC(=O)CNC(=O)[C@H](Cc2c[nH]cn2)NC(=O)[C@H](Cc2c[nH]c3ccccc23)NC(=O)[C@H](CC(N)=O)NC(=O)CNC(=O)C[C@@H](C(=O)N[C@@H](Cc2c[nH]c3ccccc23)C(=O)O)NC(=O)[C@@H]2CCCN2C1=O [Compound I-15] (GNWHGTAPDW-OH; lactam N-9) | > 900 |
| – | CC[C@H](C)[C@H](NC(=O)[C@@H](NC(=O)[C@H](CC(=O)O)NC(=O)[C@H](CCC(N)=O)NC(=O)[C@H](Cc1c[nH]cn1)NC(=O)[C@H](C)NC(=O)[C@H](Cc1ccccc1)NC(=O)[C@H](Cc1ccc(O)cc1)NC(=O)[C@H](CC(C)C)NC(=O)[C@H](Cc1c[nH]c2ccccc12)NC(=O)[C@H](CC(=O)O)NC(=O)[C@@H]1CCCN1C(=O)[C@H](C)NC(=O)[C@@H](NC(=O)CNC(=O)[C@H](Cc1c[nH]cn1)NC(=O)[C@H](Cc1c[nH]c2ccccc12)NC(=O)[C@H](CC(N)=O)NC(=O)CN)[C@@H](C)O)C(C)C)C(=O)N[C@@H](Cc1c[nH]c2ccccc12)C(=O)O [Compound I-38] | 0.33 |
| 0.83 | CC[C@H](C)[C@H](NC(=O)[C@H](CC(=O)O)NC(=O)[C@H](CC(C)C)NC(=O)[C@H](Cc1c[nH]cn1)NC(=O)[C@H](C)NC(=O)[C@H](Cc1ccc(O)cc1)NC(=O)[C@H](Cc1ccc(O)cc1)NC(=O)[C@@H](NC(=O)[C@H](Cc1c[nH]c2ccccc12)NC(=O)[C@H](CC(=O)O)NC(=O)[C@@H]1CCCN1C(=O)[C@H](C)NC(=O)[C@@H](NC(=O)CNC(=O)[C@H](Cc1c[nH]cn1)NC(=O)[C@H](Cc1c[nH]c2ccccc12)NC(=O)[C@H](CC(N)=O)NC(=O)CN)[C@@H](C)O)C(C)C)C(=O)N[C@H](C(=O)N[C@@H](Cc1c[nH]c2ccccc12)C(=O)O)[C@@H](C)CC [Compound I-37] | – |
| – | C[C@@H]1NC(=O)[C@H]([C@@H](C)O)NC(=O)CNC(=O)[C@H](Cc2c[nH]cn2)NC(=O)[C@H](Cc2c[nH]c3ccccc23)NC(=O)[C@H](CC(N)=O)NC(=O)CNC(=O)C[C@@H](C(=O)N[C@@H](Cc2c[nH]c3ccccc23)C(=O)N[C@@H](Cc2ccccc2)C(=O)N[C@@H](Cc2ccccc2)C(=O)N[C@@H](CC(N)=O)C(=O)N[C@@H](Cc2ccc(O)cc2)C(=O)N[C@@H](Cc2ccc(O)cc2)C(=O)N[C@@H](Cc2ccc3ccccc3c2)C(=O)O)NC(=O)[C@@H]2CCCN2C1=O [Compound I-49] | 6.3 |
| < 0.13 | CC[C@H](C)[C@H](NC(=O)[C@H](CC(=O)O)NC(=O)[C@H](CC(C)C)NC(=O)[C@H](Cc1c[nH]cn1)NC(=O)[C@H](C)NC(=O)[C@H](Cc1ccccc1)NC(=O)[C@H](Cc1ccc(O)cc1)NC(=O)[C@@H](NC(=O)[C@H](Cc1c[nH]c2ccccc12)NC(=O)[C@H](CC(=O)O)NC(=O)[C@@H]1CCCN1C(=O)[C@H](C)NC(=O)[C@@H](NC(=O)CNC(=O)[C@H](Cc1c[nH]cn1)NC(=O)[C@H](Cc1c[nH]c2ccccc12)NC(=O)[C@H](CC(N)=O)NC(=O)CN)[C@@H](C)O)C(C)C)C(=O)N[C@H](C(=O)N[C@@H](Cc1c[nH]c2ccccc12)C(=O)O)[C@@H](C)CC [Compound I-26] | – |
| > 51 | CC[C@H](C)[C@H](NC(=O)[C@H](CC(=O)O)NC(=O)[C@H](CC(C)C)NC(=O)[C@H](Cc1c[nH]cn1)NC(=O)[C@H](C)NC(=O)[C@H](Cc1c[nH]c2ccccc12)NC(=O)[C@@H]1CC(=O)NCC(=O)N[C@@H](CC(N)=O)C(=O)N[C@@H](Cc2c[nH]c3ccccc23)C(=O)N[C@@H](Cc2c[nH]cn2)C(=O)NCC(=O)N[C@@H]([C@@H](C)O)C(=O)N[C@@H](C)C(=O)N2CCC[C@H]2C(=O)N1)C(=O)N[C@H](C(=O)N[C@@H](Cc1c[nH]c2ccccc12)C(=O)O)[C@@H](C)CC [Compound I-35] (GNWHGTAPDWAHLDIIW-OH; lactam N-9 (inferred); C-terminus assumed) | – |
